Here are results for two compounds from US10912764B2, “Salinosporamides and methods of use thereof” (The Regents of the University of California, priority 2002, dated 2021).

In brackets after ≈: the same amount, converted by molar mass. Like-named read-outs stand apart in the source and are kept apart here.

Series [1] deals with Enterococcus faecium (vanomycin resistant). As to the kind of experiment: Antibacterial screening, Enterococcus faecium. The class given is cell-based.
Series [2] relates to Candida albicans (amphoterocin B resistant). As to the kind of experiment: Antifungal screening, Candida albicans (amphoterocin B resistant). The class given is cell-based.
The test system of a further series is Candida albicans. As to the kind of experiment: Antifungal screening, Candida albicans. The class given is cell-based. As to conditions: antifungal activity.
Series [3] has as its system Staphylococcus aureus (methecillin resistant). Description: Antibacterial screening, Staphylococcus aureus. The class given is cell-based.
In a further series the test system is HCT-116. As to the kind of experiment: HCT-116 human colon cancer cell cytotoxicity assay.
Series [4] can be described thus: Solubility in organic solvents. The note with it: CHCl3, methanol, and other polar solvents like DMSO, acetone, acetonitrile, benzene, pyridine, N,N-dimethyformamide.
The mark [5] stands for this setting: HCT-116, read-out: IC50, cytotoxic activity against human colon cancer cells.

In general, IC50 refers to the concentration that inhibits the measured activity by half. Regarding `C[C@@]12OC(=O)[C@]1([C@@H](O)[C@@H]1C=CCCC1)NC(=O)[C@@H]2CCCl` [Salinosporamide A], in series [1], the “antibacterial activity, Enterococcus faecium” value is on record as “no antibacterial activity”. The IC50 in series [1] (Enterococcus faecium) was greater than 250 mg/L; in series [2], greater than 250 mg/L; with Candida albicans, 250 mg/L (≈ 797 µM); in series [3] (Staphylococcus aureus) it was greater than 250 mg/L; with HCT-116 (HCT-116, read-out: IC50, HCT-116) it was 0.011 mg/L (≈ 0.0351 µM); in the series with HCT-116 (setting [5]), 0.011 mg/L (≈ 0.0351 µM). Besides, the “antibacterial activity, Staphylococcus aureus” value in series [3] is given as “no antibacterial activity”. The solubility entry in series [4] was “soluble”.
Turning to `COc1cc([C@@H]2c3cc4c(cc3[C@@H](O[C@@H]3O[C@@H]5CO[C@@H](C)O[C@H]5[C@H](O)[C@H]3O)[C@H]3COC(=O)[C@H]23)OCO4)cc(OC)c1O` [etoposide, reference compound], in the series on HCT-116 (setting [5]), the half-maximal inhibitory concentration (IC50) is 0.828 mg/L (≈ 1.41 µM).
